Measured values from ChEMBL document CHEMBL4627338, “Selective CDK6 degradation mediated by cereblon, VHL, and novel IAP-recruiting PROTACs” (Bioorg Med Chem Lett, 2020).
Active and inactive are the calls of the source. The calls are words filed in the database; no cut-off is given here.

Tests used:
[1] = biological target: Cyclin-dependent kinase 4/cyclin D1 (Homo sapiens, UniProt P11802); assay: Inhibition of human CDK4/cyclin-D1 using RB protein as substrate by [gamma-33P]-ATP assay; format: protein-complex assay
Cyclin-dependent kinase 4/cyclin D1, sequence (P11802 whole entry): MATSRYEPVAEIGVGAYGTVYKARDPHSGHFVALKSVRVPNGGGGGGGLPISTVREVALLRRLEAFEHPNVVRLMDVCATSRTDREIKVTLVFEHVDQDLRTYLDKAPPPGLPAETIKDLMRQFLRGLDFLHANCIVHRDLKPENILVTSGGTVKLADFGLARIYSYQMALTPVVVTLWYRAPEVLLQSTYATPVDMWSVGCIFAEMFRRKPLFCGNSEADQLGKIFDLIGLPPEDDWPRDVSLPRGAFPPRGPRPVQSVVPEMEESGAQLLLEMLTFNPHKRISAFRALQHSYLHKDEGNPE
Cyclin-dependent kinase 4/cyclin D1, sequence (P24385 whole entry, further chain): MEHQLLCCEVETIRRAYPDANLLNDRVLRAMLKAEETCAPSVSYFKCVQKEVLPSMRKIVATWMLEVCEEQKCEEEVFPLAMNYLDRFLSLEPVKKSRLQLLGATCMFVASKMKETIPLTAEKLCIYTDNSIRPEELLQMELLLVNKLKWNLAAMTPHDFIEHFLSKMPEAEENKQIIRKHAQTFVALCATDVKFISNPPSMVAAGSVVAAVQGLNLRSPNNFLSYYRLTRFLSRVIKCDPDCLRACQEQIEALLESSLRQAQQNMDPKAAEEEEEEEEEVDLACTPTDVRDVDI

CDK6/cyclin D3 = CDK6/cyclin D3 (Homo sapiens, UniProt Q00534); assay: Inhibition of human CDK6/cyclin-D3 using RB protein as substrate by [gamma-33P]-ATP assay; format: protein-complex assay
CDK6/cyclin D3, sequence (P30281 whole entry): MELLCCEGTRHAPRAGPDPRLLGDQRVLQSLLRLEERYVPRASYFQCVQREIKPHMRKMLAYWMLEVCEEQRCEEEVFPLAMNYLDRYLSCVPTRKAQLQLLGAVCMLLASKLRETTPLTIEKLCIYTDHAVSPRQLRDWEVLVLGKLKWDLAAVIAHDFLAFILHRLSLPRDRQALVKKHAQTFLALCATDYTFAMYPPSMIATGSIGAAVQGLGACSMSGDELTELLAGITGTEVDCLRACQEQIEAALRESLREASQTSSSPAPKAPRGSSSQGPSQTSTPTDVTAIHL
CDK6/cyclin D3, sequence (Q00534 whole entry): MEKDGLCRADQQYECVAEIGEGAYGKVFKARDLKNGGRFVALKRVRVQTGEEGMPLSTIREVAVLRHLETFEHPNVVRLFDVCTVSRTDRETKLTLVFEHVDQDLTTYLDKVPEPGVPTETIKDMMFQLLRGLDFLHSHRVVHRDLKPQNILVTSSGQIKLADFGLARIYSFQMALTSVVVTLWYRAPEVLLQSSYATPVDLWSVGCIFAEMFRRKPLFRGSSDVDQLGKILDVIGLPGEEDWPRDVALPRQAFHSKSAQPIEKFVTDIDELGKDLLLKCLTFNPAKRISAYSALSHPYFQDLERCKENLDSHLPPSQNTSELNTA

[2] = biological target: Protein cereblon/Cyclin-dependent kinase 4 (Homo sapiens, UniProt P11802+Q96SW2); assay: Protac activity at CRBN/CDK4 in human Jurkat cells assessed as induction of CDK4 degradation measured after 24 hrs by capillary electrophoresis; format: cell-based
Protein cereblon/Cyclin-dependent kinase 4, sequence (P11802 whole entry): as the sequence (P11802 whole entry) above
Protein cereblon/Cyclin-dependent kinase 4, sequence (Q96SW2 whole entry): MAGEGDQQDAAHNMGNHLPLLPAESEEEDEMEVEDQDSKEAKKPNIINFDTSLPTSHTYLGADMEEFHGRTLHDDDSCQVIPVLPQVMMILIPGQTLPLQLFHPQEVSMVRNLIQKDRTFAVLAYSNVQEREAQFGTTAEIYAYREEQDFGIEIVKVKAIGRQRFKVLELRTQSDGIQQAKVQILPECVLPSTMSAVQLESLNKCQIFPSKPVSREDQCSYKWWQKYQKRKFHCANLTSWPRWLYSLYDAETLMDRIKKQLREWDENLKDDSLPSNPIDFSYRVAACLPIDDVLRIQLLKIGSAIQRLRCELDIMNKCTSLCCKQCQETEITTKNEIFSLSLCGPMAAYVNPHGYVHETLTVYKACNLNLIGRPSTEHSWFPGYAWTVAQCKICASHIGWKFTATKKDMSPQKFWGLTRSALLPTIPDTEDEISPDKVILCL

[3] = biological target: Protein cereblon/Cyclin-dependent kinase 6 (Homo sapiens, UniProt Q00534+Q96SW2); assay: Protac activity at CRBN/CDK6 in human Jurkat cells assessed as induction of CDK6 degradation measured after 24 hrs by capillary electrophoresis; format: cell-based
Protein cereblon/Cyclin-dependent kinase 6, sequence (Q00534 whole entry): as the sequence (Q00534 whole entry) above
Protein cereblon/Cyclin-dependent kinase 6, sequence (Q96SW2 whole entry): as the sequence (Q96SW2 whole entry) above

[4] = biological target: T1, Baculoviral IAP repeat-containing protein 2/Cyclin-dependent kinase 4 (Homo sapiens, UniProt P11802+Q13490); assay: Protac activity at CDK4/BIRC2 in human Jurkat cells assessed as induction of CDK4 degradation measured after 24 hrs by capillary electrophoresis; format: cell-based
Target sequence in this assay (P11802 whole entry): as the sequence (P11802 whole entry) above
Target sequence in this assay (Q13490 whole entry): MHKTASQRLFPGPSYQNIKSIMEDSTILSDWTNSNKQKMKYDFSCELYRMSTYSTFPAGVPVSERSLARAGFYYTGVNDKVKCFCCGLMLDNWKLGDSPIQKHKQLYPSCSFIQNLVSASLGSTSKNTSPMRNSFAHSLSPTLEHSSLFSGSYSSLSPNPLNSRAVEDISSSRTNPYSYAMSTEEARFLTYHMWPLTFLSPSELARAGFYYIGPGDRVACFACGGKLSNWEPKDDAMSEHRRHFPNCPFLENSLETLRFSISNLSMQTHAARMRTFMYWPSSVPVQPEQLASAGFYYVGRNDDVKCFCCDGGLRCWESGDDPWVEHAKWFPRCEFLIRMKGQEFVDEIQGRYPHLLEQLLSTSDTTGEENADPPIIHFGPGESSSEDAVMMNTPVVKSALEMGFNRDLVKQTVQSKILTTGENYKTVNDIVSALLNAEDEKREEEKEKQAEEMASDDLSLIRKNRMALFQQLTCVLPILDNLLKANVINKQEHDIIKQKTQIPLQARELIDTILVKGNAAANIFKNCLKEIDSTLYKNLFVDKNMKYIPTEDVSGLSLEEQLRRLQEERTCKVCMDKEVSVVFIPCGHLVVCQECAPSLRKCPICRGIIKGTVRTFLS

[5] = biological target: Baculoviral IAP repeat-containing protein 2/Cyclin-dependent kinase 6 (Homo sapiens, UniProt Q00534+Q13490); assay: Protac activity at CDK6/BIRC2 in human Jurkat cells assessed as induction of CDK6 degradation measured after 24 hrs by capillary electrophoresis; format: cell-based
Baculoviral IAP repeat-containing protein 2/Cyclin-dependent kinase 6, sequence (Q00534 whole entry): as the sequence (Q00534 whole entry) above
Baculoviral IAP repeat-containing protein 2/Cyclin-dependent kinase 6, sequence (Q13490 whole entry): as the sequence (Q13490 whole entry) above

[6] = biological target: T1, Baculoviral IAP repeat-containing protein 2/Cyclin-dependent kinase 4; assay: Protac activity at CDK4/BIRC2 in human epoxomicin pretreated Jurkat cells assessed as decrease in CDK4 protein level measured after 5 hrs; format: cell-based
Target sequence in this assay (P11802 2-303 limits assumed): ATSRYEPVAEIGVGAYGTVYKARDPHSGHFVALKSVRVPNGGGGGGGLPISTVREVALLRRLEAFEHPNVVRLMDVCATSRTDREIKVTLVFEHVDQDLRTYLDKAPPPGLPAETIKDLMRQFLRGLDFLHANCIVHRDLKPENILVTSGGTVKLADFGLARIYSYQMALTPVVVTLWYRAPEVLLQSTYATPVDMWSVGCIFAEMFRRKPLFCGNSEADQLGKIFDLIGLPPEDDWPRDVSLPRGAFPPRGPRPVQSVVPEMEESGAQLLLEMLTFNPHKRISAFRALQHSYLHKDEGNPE
Target sequence in this assay (Q13490 whole entry partner): as the sequence (Q13490 whole entry) above

[7] = tested on: Baculoviral IAP repeat-containing protein 2/Cyclin-dependent kinase 6 (Homo sapiens); assay: Protac activity at CDK6/BIRC2 in human epoxomicin pretreated Jurkat cells assessed as decrease in CDK6 protein level measured after 5 hrs
[8] = biological target: T2, von Hippel-Lindau disease tumor suppressor/Cyclin-dependent kinase 4 (Homo sapiens, UniProt P11802+P40337); assay: Protac activity at CDK4/VHL in human Jurkat cells assessed as induction of CDK4 degradation measured after 24 hrs by capillary electrophoresis; format: cell-based
Target sequence in this assay (P11802 whole entry): as the sequence (P11802 whole entry) above
Target sequence in this assay (P40337 whole entry): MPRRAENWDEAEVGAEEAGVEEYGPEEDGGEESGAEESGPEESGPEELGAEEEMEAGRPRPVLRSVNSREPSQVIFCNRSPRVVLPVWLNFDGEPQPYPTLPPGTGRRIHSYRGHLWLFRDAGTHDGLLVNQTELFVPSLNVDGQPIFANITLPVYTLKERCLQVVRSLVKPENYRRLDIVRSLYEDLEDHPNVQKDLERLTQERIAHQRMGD

[9] = biological target: von Hippel-Lindau disease tumor suppressor/Cyclin-dependent kinase 6 (Homo sapiens, UniProt Q00534+P40337); assay: Protac activity at CDK6/VHL in human Jurkat cells assessed as induction of CDK6 degradation measured after 24 hrs by capillary electrophoresis; format: cell-based
von Hippel-Lindau disease tumor suppressor/Cyclin-dependent kinase 6, sequence (Q00534 whole entry): as the sequence (Q00534 whole entry) above
von Hippel-Lindau disease tumor suppressor/Cyclin-dependent kinase 6, sequence (P40337 whole entry): as the sequence (P40337 whole entry) above

[10] = biological target: T2, von Hippel-Lindau disease tumor suppressor/Cyclin-dependent kinase 4; assay: Protac activity at CDK4/VHL in human epoxomicin pretreated Jurkat cells assessed as decrease in CDK4 protein level measured after 5 hrs; format: cell-based
Target sequence in this assay (P11802 2-303 limits assumed): as the sequence (P11802 2-303 limits assumed) above
Target sequence in this assay (P40337 whole entry partner): as the sequence (P40337 whole entry) above

[11] = tested on: von Hippel-Lindau disease tumor suppressor/Cyclin-dependent kinase 4 (Homo sapiens); assay: Protac activity at CDK4/VHL in human epoxomicin pretreated Jurkat cells assessed as decrease in CDK4 protein level measured after 5 hrs

Row | Structure (SMILES) | IC50 [1] | IC50 (CDK6/cyclin D3; read-out: pIC50 (converted)) | pDC50 [4] | pDC50 [5] | further results
1 | CC(=O)c1c(C)c2cnc(Nc3ccc(N4CCN(CCOCCOCCNC(=O)CNc5cccc6c5C(=O)N(C5CCC(=O)NC5=O)C6=O)CC4)cn3)nc2n(C2CCCC2)c1=O (stereo unspecified) | 6.31 nM | 15.8 nM |  |  | pDC50 [2]: 7.3; pDC50 [3]: 8.3
2 | CN[C@@H](C)C(=O)N[C@H](C(=O)N1C[C@@H](NC(=O)COCCOCCOCCN2CCN(c3ccc(Nc4ncc5c(C)c(C(C)=O)c(=O)n(C6CCCC6)c5n4)nc3)CC2)C[C@H]1C(=O)Nc1c(F)cccc1F)C(C)(C)C | 6.31 nM | 15.8 nM | 7.1 | 7.8 | 
3 | CN[C@@H](C)C(=O)N[C@H](C(=O)N1C[C@@H](NC(=O)CCCCCCCN2CCN(c3ccc(Nc4ncc5c(C)c(C(C)=O)c(=O)n(C6CCCC6)c5n4)nc3)CC2)C[C@H]1C(=O)Nc1c(F)cccc1F)C(C)(C)C | 5.01 nM | 12.6 nM | 7.7 | 8.3 | Activity [6]: inactive; Activity [7]: inactive
4 | CC(=O)c1c(C)c2cnc(Nc3ccc(N4CCN(CCCCCCCC(=O)N[C@H](C(=O)N5C[C@H](O)C[C@H]5C(=O)N[C@@H](C)c5ccc(-c6scnc6C)cc5)C(C)(C)C)CC4)cn3)nc2n(C2CCCC2)c1=O | 31.6 nM |  |  |  | IC50 (CDK6/cyclin D3; read-out: IC50): 200 nM; pDC50 [8]: 7.6; DC50 [9]: 4 nM; pDC50 [9]: 8.4; Activity [10]: inactive; Activity [11]: inactive
5 | CC(=O)c1c(C)c2cnc(Nc3ccc(N4CCN(CCCCNC(=O)CNc5cccc6c5C(=O)N(C5CCC(=O)NC5=O)C6=O)CC4)cn3)nc2n(C2CCCC2)c1=O (stereo unspecified) | 3.16 nM |  |  |  | 
6 | CN[C@@H](C)C(=O)N[C@H](C(=O)N1C[C@@H](NC(=O)CCOCCOCCOCCNC(=O)CN2CCN(c3ccc(Nc4ncc5c(C)c(C(C)=O)c(=O)n(C6CCCC6)c5n4)nc3)CC2)C[C@H]1C(=O)Nc1c(F)cccc1F)C(C)(C)C | 15.8 nM | 39.8 nM | 5.3 | 5.8 | 
